Assay results from US7855292B2, “Sulfonamide compounds” (Janssen Pharmaceutica NV, priority 2004, dated 2010).

How the values were obtained:
CCK-1 receptor = target: T1, CCK-1 receptor (Homo sapiens, UniProt P32238); assay: CCK1 binding assay ([125I]-BH-CCK-8S displacement, CHO-K1 membranes); settings: membranes of CHO-K1 cells stably transfected with the CCK-1 receptor, 20 pM [125I]-BH-CCK-8S, 0.3 μM PD-134,308 present, 60 min at 21±3° C.; for Ki: read-out: CCK1 pKi (converted)
T1 construct: expressed in transfected cells; host or cells: CHO-K1
T1 sequence (P32238 1-428): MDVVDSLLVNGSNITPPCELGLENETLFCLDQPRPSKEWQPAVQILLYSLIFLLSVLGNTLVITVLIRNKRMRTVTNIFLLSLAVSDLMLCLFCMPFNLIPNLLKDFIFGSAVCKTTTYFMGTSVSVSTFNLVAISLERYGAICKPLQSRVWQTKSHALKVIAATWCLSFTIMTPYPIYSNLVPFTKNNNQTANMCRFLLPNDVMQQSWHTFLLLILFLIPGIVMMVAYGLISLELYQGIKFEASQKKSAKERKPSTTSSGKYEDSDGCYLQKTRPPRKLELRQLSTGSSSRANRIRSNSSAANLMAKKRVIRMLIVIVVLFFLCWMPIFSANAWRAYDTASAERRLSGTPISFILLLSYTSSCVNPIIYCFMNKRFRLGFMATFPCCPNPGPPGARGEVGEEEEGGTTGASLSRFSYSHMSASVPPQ
How it was run: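 Membranes from CHO-K1 cells stably expressing CCK-1 incubated 1 h at 21±3° C with 20 pM [125I]-BH-CCK-8S in HEPES buffer pH 7.2 containing 0.3 μM PD-134,308 to block CCK-2. Bound radioactivity read by gamma counting after filtration. pKi derived via Cheng-Prusoff, with specific binding defined using 2-NAP.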

CCK2 receptor = target: T2, CCK2 receptor (Homo sapiens, UniProt P32239); assay: CCK2 binding assay ([125I]-BH-CCK-8S displacement, HEKZFP membranes); settings: membranes of doxycycline-induced HEKZFP cells, 20 pM [125I]-BH-CCK-8S, 60 min at 21±3° C.; for Ki: read-out: CCK2 pKi (converted)
T2 construct: analyzed for ZFP expression as well as CCK2R induction upon addition of doxycycline to the culture medium; endogenous in cells
T2 sequence (P32239 1-447): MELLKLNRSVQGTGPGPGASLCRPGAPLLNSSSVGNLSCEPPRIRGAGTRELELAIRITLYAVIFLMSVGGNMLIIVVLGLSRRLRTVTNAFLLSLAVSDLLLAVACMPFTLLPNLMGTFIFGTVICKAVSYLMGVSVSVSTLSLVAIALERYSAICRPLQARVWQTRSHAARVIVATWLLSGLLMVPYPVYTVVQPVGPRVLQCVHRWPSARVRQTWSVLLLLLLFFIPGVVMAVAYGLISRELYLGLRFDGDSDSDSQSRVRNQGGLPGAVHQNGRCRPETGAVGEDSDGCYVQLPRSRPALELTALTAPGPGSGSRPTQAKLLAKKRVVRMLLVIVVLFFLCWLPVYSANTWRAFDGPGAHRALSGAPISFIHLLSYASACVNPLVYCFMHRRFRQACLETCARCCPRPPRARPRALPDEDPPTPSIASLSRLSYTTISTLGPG

## CC(CNC(=O)c1ccc(Br)cc1NS(=O)(=O)c1cccc2nsnc12)c1ccc(Cl)cc1 (stereo not shown) [Example 21, 2-(Benzo[1,2,5]thiadiazole-4-sulfonylamino)-4-bromo-N-[2-(4-chloro-phenyl)-propyl]-benzamide]
CCK-1 receptor
  Ki: 126 nM
CCK2 receptor
  Ki: 1000 nM

## CC(Cc1ccc(Cl)cc1)NC(=O)c1ccc(C(F)(F)F)cc1NS(=O)(=O)c1cccc2nsnc12 (stereo not shown) [Example 22, 2-(Benzo[1,2,5]thiadiazole-4-sulfonylamino)-N-[2-(4-chloro-phenyl)-1-methyl-ethyl]-4-trifluoromethyl-benzamide]
CCK-1 receptor
  Ki: 501 nM
CCK2 receptor
  Ki: 631 nM

## CC(Cc1ccc(Cl)cc1)NC(=O)c1ccc(Br)cc1NS(=O)(=O)c1cccc2scnc12 (stereo not shown) [Example 23, 2-(Benzothiazole-4-sulfonylamino)-4-bromo-N-[2-(4-chloro-phenyl)-1-methyl-ethyl]-benzamide]
CCK-1 receptor
  Ki: 1000 nM
CCK2 receptor
  Ki: 631 nM

## CC(CNC(=O)c1ccc(Br)cc1NS(=O)(=O)c1c(F)cccc1F)c1ccc(Cl)cc1 (stereo not shown) [Example 24, 4-Bromo-N-[2-(4-chloro-phenyl)-propyl]-2-(2,6-difluoro-benzenesulfonylamino)-benzamide]
CCK-1 receptor
  Ki: 100 nM
CCK2 receptor
  Ki: 1260 nM

## O=C(N[C@@H](Cc1ccccc1)C(=O)O)c1ccc(C(F)(F)F)cc1NS(=O)(=O)c1cccc2nsnc12 [Example 26, 2-[2-(Benzo[1,2,5]thiadiazole-4-sulfonylamino)-4-trifluoromethyl-benzoylamino]-3-phenyl-propionic acid]
CCK-1 receptor
  Ki: 2510 nM
CCK2 receptor
  Ki: 39.8 nM

## O=C(N[C@@H](Cc1ccccc1)C(=O)O)c1cc(Cl)c(Cl)cc1NS(=O)(=O)c1cccc2nccnc12 [Example 29, 2-[4,5-Dichloro-2-(quinoxaline-5-sulfonylamino)-benzoylamino]-3-phenyl-propionic acid]
CCK-1 receptor
  Ki: 6310 nM
CCK2 receptor
  Ki: 79.4 nM

## CC(CNC(=O)c1ccc(Br)cc1NS(=O)(=O)c1c(F)cccc1F)c1ccc(Cl)c(Cl)c1 (stereo not shown) [Example 30, 4-Bromo-N-[2-(3,4-dichloro-phenyl)-propyl]-2-(2,6-difluoro-benzenesulfonylamino)-benzamide]
CCK-1 receptor
  Ki: 63.1 nM
CCK2 receptor
  Ki: 2510 nM

## CC(CNC(=O)c1ccc(Br)cc1NS(=O)(=O)c1cccc2nsnc12)c1ccccc1 (stereo not shown) [Example 31, 2-(Benzo[1,2,5]thiadiazole-4-sulfonylamino)-4-bromo-N-(2-phenyl-propyl)-benzamide]
CCK-1 receptor
  CCK1 pKi: 7.1
CCK2 receptor
  CCK2 pKi: 6.2

## O=C(N[C@@H](Cc1ccc(Cl)c(Cl)c1)C(=O)O)c1ccc(I)cc1NS(=O)(=O)c1c(F)cccc1F [Example 32, 3-(3,4-Dichloro-phenyl)-2-[2-(2,6-difluoro-benzenesulfonylamino)-4-iodo-benzoylamino]-propionic acid]
CCK-1 receptor
  Ki: 398 nM
CCK2 receptor
  Ki: 100 nM

## O=C(N[C@@H](Cc1ccc(Cl)cc1)C(=O)O)c1ccc(I)cc1NS(=O)(=O)c1cccc2nsnc12 [Example 33, 2-[2-(Benzo[1,2,5]thiadiazole-4-sulfonylamino)-4-iodo-benzoylamino]-3-(4-chloro-phenyl)-propionic acid]
CCK-1 receptor
  Ki: 158 nM
CCK2 receptor
  Ki: 39.8 nM

## O=C(N[C@@H](Cc1ccc(Cl)cc1)C(=O)O)c1ccc(I)cc1NS(=O)(=O)c1c(F)cccc1F [Example 34, 3-(4-Chloro-phenyl)-2-[2-(2,6-difluoro-benzenesulfonylamino)-4-iodo-benzoylamino]-propionic acid]
CCK-1 receptor
  Ki: 398 nM
CCK2 receptor
  Ki: 100 nM

## C[C@H](CNC(=O)c1ccc(Br)cc1NS(=O)(=O)c1cccc2nsnc12)c1ccccc1 [Example 35, (S)-2-(Benzo[1,2,5]thiadiazole-4-sulfonylamino)-4-bromo-N-(2-phenyl-propyl)-benzamide]
CCK-1 receptor
  CCK1 pKi: 7.2
CCK2 receptor
  CCK2 pKi: 6.3

## C[C@@H](CNC(=O)c1ccc(Br)cc1NS(=O)(=O)c1cccc2nsnc12)c1ccccc1 [Example 36, (R)-2-(Benzo[1,2,5]thiadiazole-4-sulfonylamino)-4-bromo-N-(2-phenyl-propyl)-benzamide]
CCK-1 receptor
  CCK1 pKi: 7.1
CCK2 receptor
  CCK2 pKi: 5.8

## C[C@H](CNC(=O)c1ccc(Br)cc1NS(=O)(=O)c1c(F)cccc1F)c1ccccc1 [Example 37, (S)-4-Bromo-2-(2,6-difluoro-benzenesulfonylamino)-N-(2-phenyl-propyl)-benzamide]
CCK-1 receptor
  Ki: 398 nM
CCK2 receptor
  Ki: 3980 nM

## C[C@@H](CNC(=O)c1ccc(Br)cc1NS(=O)(=O)c1c(F)cccc1F)c1ccccc1 [Example 38, (R)-4-Bromo-2-(2,6-difluoro-benzenesulfonylamino)-N-(2-phenyl-propyl)-benzamide]
CCK-1 receptor
  Ki: 316 nM
CCK2 receptor
  Ki: 2000 nM

## CC(CNC(=O)c1ccc(I)cc1NS(=O)(=O)c1cccc2nsnc12)c1ccc(Cl)c(Cl)c1 (stereo not shown) [Example 39, 2-(Benzo[1,2,5]thiadiazole-4-sulfonylamino)-N-[2-(3,4-dichloro-phenyl)-propyl]-4-iodo-benzamide]
CCK-1 receptor
  Ki: 25.1 nM
CCK2 receptor
  Ki: 251 nM

## CC(CNC(=O)c1ccc(I)cc1NS(=O)(=O)c1cccc2nccnc12)c1ccc(Cl)c(Cl)c1 (stereo not shown) [Example 40, N-[2-(3,4-Dichloro-phenyl)-propyl]-4-iodo-2-(quinoxaline-5-sulfonylamino)-benzamide]
CCK-1 receptor
  Ki: 126 nM
CCK2 receptor
  Ki: 316 nM

## O=C(N[C@@H](Cc1ccc(Cl)cc1Cl)C(=O)O)c1ccc(Br)cc1NS(=O)(=O)c1c(F)cccc1F [Example 41, 2-[4-Bromo-2-(2,6-difluoro-benzenesulfonylamino)-benzoylamino]-3-(2,4-dichloro-phenyl)-propionic acid]
CCK-1 receptor
  Ki: 631 nM
CCK2 receptor
  Ki: 50.1 nM

## CC(CNC(=O)c1ccc(I)cc1NS(=O)(=O)c1c(F)cccc1F)c1ccc(Cl)c(Cl)c1 (stereo not shown) [Example 42, N-[2-(3,4-Dichloro-phenyl)-propyl]-2-(2,6-difluoro-benzenesulfonylamino)-4-iodo-benzamide]
CCK-1 receptor
  Ki: 31.6 nM
CCK2 receptor
  Ki: 3160 nM

## CC(CNC(=O)c1ccc(Cl)cc1NS(=O)(=O)c1c(F)cccc1F)c1ccc(Cl)cc1Cl (stereo not shown) [Example 43, 4-Chloro-N-[2-(2,4-dichloro-phenyl)-propyl]-2-(2,6-difluoro-benzenesulfonylamino)-benzamide]
CCK-1 receptor
  Ki: 126 nM
CCK2 receptor
  Ki: 251 nM

## CC(CNC(=O)c1ccc(Cl)cc1NS(=O)(=O)c1c(F)cccc1F)c1ccc([N+](=O)[O-])cc1 (stereo not shown) [Example 44, 4-Chloro-2-(2,6-difluoro-benzenesulfonylamino)-N-[2-(4-nitro-phenyl)-propyl]-benzamide]
CCK-1 receptor
  Ki: 100 nM
CCK2 receptor
  Ki: 3980 nM

## CC(CNC(=O)c1ccc(Cl)cc1NS(=O)(=O)c1c(F)cccc1F)c1ccc(C(F)(F)F)cc1 (stereo not shown) [Example 45, 4-Chloro-2-(2,6-difluoro-benzenesulfonylamino)-N-[2-(4-trifluoromethyl-phenyl)-propyl]-benzamide]
CCK-1 receptor
  Ki: 251 nM
CCK2 receptor
  Ki: 1580 nM

## O=C(N[C@H](Cc1ccc(Cl)cc1Cl)C(=O)O)c1ccc(Cl)cc1NS(=O)(=O)c1c(F)cccc1F [Example 46, 2-[4-Chloro-2-(2,6-difluoro-benzenesulfonylamino)-benzoylamino]-3-(2,4-dichloro-phenyl)-propionic acid]
CCK-1 receptor
  Ki: 1580 nM
CCK2 receptor
  Ki: 63.1 nM

## CC(CNC(=O)c1ccc(I)cc1NS(=O)(=O)c1c(F)cccc1F)c1ccc(Cl)cc1Cl (stereo not shown) [Example 47, N-[2-(2,4-Dichloro-phenyl)-propyl]-2-(2,6-difluoro-benzenesulfonylamino)-4-iodo-benzamide]
CCK-1 receptor
  Ki: 100 nM
CCK2 receptor
  Ki: 5010 nM

## CC(CNC(=O)c1ccc(I)cc1NS(=O)(=O)c1c(F)cccc1F)c1ccc([N+](=O)[O-])cc1 (stereo not shown) [Example 48, 2-(2,6-Difluoro-benzenesulfonylamino)-4-iodo-N-[2-(4-nitro-phenyl)-propyl]-benzamide]
CCK-1 receptor
  Ki: 50.1 nM
CCK2 receptor
  Ki: 2000 nM

## C[C@@H](NC(=O)c1ccc(Cl)cc1NS(=O)(=O)c1cccc2nsnc12)[C@@H](O)c1ccccc1 [Example 49, 2-(Benzo[1,2,5]thiadiazole-4-sulfonylamino)-4-chloro-N-((2S,1R)-2-hydroxy-1-methyl-2-phenyl-ethyl)-benzamide]
CCK-1 receptor
  Ki: 200 nM
CCK2 receptor
  Ki: 2000 nM
